Reference: the supplement of paper PMC6045584
± gives the standard deviation of the averaged measurements.

Legend:
MDV3100 [1] = compound: T1, CNC(=O)c1ccc(N2C(=S)N(c3ccc(C#N)c(C(F)(F)F)c3)C(=O)C2(C)C)cc1F [MDV3100]; assay: area under dose-response curve of surviving fraction (unscaled, Aref=0) (surviving fraction x log10(nM)); higher = more resistant; settings: exposure time: 5 days; dose range 0.5-1000 nM
In short: (§1)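 Inhibitor was applied to tumour cell lines at eight concentrations (0.5 to 1000 nM) for five days in 384-well plates. Luminescence from CellTiter-Glo, scaled to DMSO-only wells, gave surviving fractions in three screens per line, and these were fitted by 3-parameter logistic regression with the drc R package. The area under the curve is an unscaled activity area. Aref was 0, and dose was on a log10 scale.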

SAPACITABINE [2] = compound: T2, CCCCCCCCCCCCCCCC(=O)Nc1ccn([C@@H]2O[C@H](CO)[C@@H](O)[C@@H]2C#N)c(=O)n1 [SAPACITABINE]; assay: as above; settings: exposure time: 5 days; dose range 0.5-1000 nM
In short: as §1

CANERTINIB [3] = compound: T3, C=CC(=O)Nc1cc2c(Nc3ccc(F)c(Cl)c3)ncnc2cc1OCCCN1CCOCC1 [CANERTINIB]; assay: as above; settings: exposure time: 5 days; dose range 0.5-1000 nM
In short: as §1

[4] = compound: Cn1cc(C2=Nc3cc(NC(=O)C(N)C4CCCCC4)cc4c3C2=CNNC4=O)cn1; assay: as above; settings: exposure time: 5 days; dose range 0.5-1000 nM
In short: as §1

TIOGUANINE [5] = compound: T4, Nc1nc2[nH]cnc2c(=S)[nH]1 [TIOGUANINE]; assay: as above; settings: exposure time: 5 days; dose range 0.5-1000 nM
In short: as §1

AFATINIB [6] = compound: T5, CN(C)C/C=C/C(=O)Nc1cc2c(Nc3ccc(F)c(Cl)c3)ncnc2cc1O[C@H]1CCOC1 [AFATINIB]; assay: as above; settings: exposure time: 5 days; dose range 0.5-1000 nM
In short: as §1

SNX-5422 [7] = compound: T6, CC1(C)CC(=O)c2c(C(F)(F)F)nn(-c3ccc(C(N)=O)c(N[C@H]4CC[C@H](OC(=O)CN)CC4)c3)c2C1 [SNX-5422]; assay: as above; settings: exposure time: 5 days; dose range 0.5-1000 nM
In short: as §1

BI-2536 [8] = compound: T7, CC[C@@H]1C(=O)N(C)c2cnc(Nc3ccc(C(=O)NC4CCN(C)CC4)cc3OC)nc2N1C1CCCC1 [BI-2536]; assay: as above; settings: exposure time: 5 days; dose range 0.5-1000 nM
In short: as §1

MDV3100 [9] = compound: T1, MDV3100; assay: surviving fraction relative to DMSO-only wells; higher = less growth inhibition; settings: exposure time: 5 days
In short: (§2)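 Inhibitors were tested at 0.5, 1, 5, 10, 50, 100, 500 and 1000 nM, applied continuously for five days beginning 24 hours after log-phase tumour cells were seeded at 250–500 per well in 384-well plates. CellTiter-Glo luminescence served as the viability measure, expressed as surviving fraction against the median of DMSO-only wells. Each line, screened three times, was kept only with replicate Pearson r >0.7 and median Z' >0.3.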

SAPACITABINE [10] = compound: T2, SAPACITABINE; assay: as above; settings: exposure time: 5 days
In short: as §2

CANERTINIB [11] = compound: T3, CANERTINIB; assay: as above; settings: exposure time: 5 days
In short: as §2

[12] = compound: Cn1cc(C2=Nc3cc(NC(=O)C(N)C4CCCCC4)cc4c3C2=CNNC4=O)cn1; assay: as above; settings: exposure time: 5 days
In short: as §2

TIOGUANINE [13] = compound: T4, TIOGUANINE; assay: as above; settings: exposure time: 5 days
In short: as §2

AFATINIB [14] = compound: T5, AFATINIB; assay: as above; settings: exposure time: 5 days
In short: as §2

SNX-5422 [15] = compound: T6, SNX-5422; assay: as above; settings: exposure time: 5 days
In short: as §2

BI-2536 [16] = compound: T7, BI-2536; assay: as above; settings: exposure time: 5 days
In short: as §2

HSSYII SYNOVIAL was tested, and the “area under dose-response curve” value (MDV3100 [1]) was 2.74, the “area under dose-response curve” value (SAPACITABINE [2]) was 1.36 and the “area under dose-response curve” value (CANERTINIB [3]) was 2.66. The “area under dose-response curve” value [4] was 1.67, the “area under dose-response curve” value (TIOGUANINE [5]) was 3.09 and the “area under dose-response curve” value (AFATINIB [6]) was 2.96. For the same test system, the “area under dose-response curve” value (SNX-5422 [7]) was 1.9, the “area under dose-response curve” value (BI-2536 [8]) was 0.796 and the surviving fraction (MDV3100 [9]; 0.5 nM) was 0.881 ± 0.042. The surviving fraction (MDV3100 [9]; 1 nM) was 0.848 ± 0.052, the surviving fraction (MDV3100 [9]; 5 nM) was 0.903 ± 0.022 and the surviving fraction (MDV3100 [9]; 10 nM) was 0.545 ± 0.034. For the same test system, the surviving fraction (MDV3100 [9]; 50 nM) was 0.908 ± 0.028, the surviving fraction (MDV3100 [9]; 100 nM) was 0.9 ± 0.066 and the surviving fraction (MDV3100 [9]; 500 nM) was 0.949 ± 0.032. It also gave a surviving fraction (MDV3100 [9]; 1000 nM) of 0.721 ± 0.01, a surviving fraction (SAPACITABINE [10]; 0.5 nM) of 0.797 ± 0.015 and a surviving fraction (SAPACITABINE [10]; 1 nM) of 0.636 ± 0.061. For the same test system, the surviving fraction (SAPACITABINE [10]; 5 nM) was 0.726 ± 0.032, the surviving fraction (SAPACITABINE [10]; 10 nM) was 0.132 ± 0.022 and the surviving fraction (SAPACITABINE [10]; 50 nM) was 0.537 ± 0.033. For the same test system, the surviving fraction (SAPACITABINE [10]; 100 nM) was 0.315 ± 0.005, the surviving fraction (SAPACITABINE [10]; 500 nM) was 0.123 ± 0.0085 and the surviving fraction (SAPACITABINE [10]; 1000 nM) was 0.0603 ± 0.0046. The surviving fraction (CANERTINIB [11]; 0.5 nM) was 0.809 ± 0.039, the surviving fraction (CANERTINIB [11]; 1 nM) was 0.794 ± 0.015 and the surviving fraction (CANERTINIB [11]; 5 nM) was 0.814 ± 0.053. The surviving fraction (CANERTINIB [11]; 10 nM) was 0.855 ± 0.037, the surviving fraction (CANERTINIB [11]; 50 nM) was 0.889 ± 0.033 and the surviving fraction (CANERTINIB [11]; 100 nM) was 0.868 ± 0.011. For the same test system, the surviving fraction (CANERTINIB [11]; 500 nM) was 0.724 ± 0.031, the surviving fraction (CANERTINIB [11]; 1000 nM) was 0.631 ± 0.021 and the surviving fraction ([12]; 0.5 nM) was 0.92 ± 0.0095. It also gave a surviving fraction ([12]; 1 nM) of 0.96 ± 0.063, a surviving fraction ([12]; 5 nM) of 0.885 ± 0.062 and a surviving fraction ([12]; 10 nM) of 0.863 ± 0.014. For the same test system, the surviving fraction ([12]; 50 nM) was 0.135 ± 0.01, the surviving fraction ([12]; 100 nM) was 0.046 ± 0.0044 and the surviving fraction ([12]; 500 nM) was 0.0388 ± 0.0032. The surviving fraction ([12]; 1000 nM) was 0.0475 ± 0.0025, the surviving fraction (TIOGUANINE [13]; 0.5 nM) was 0.927 ± 0.055 and the surviving fraction (TIOGUANINE [13]; 1 nM) was 0.911 ± 0.028. It also gave a surviving fraction (TIOGUANINE [13]; 5 nM) of 0.954 ± 0.05, a surviving fraction (TIOGUANINE [13]; 10 nM) of 0.92 ± 0.027 and a surviving fraction (TIOGUANINE [13]; 50 nM) of 0.941 ± 0.055. It also gave a surviving fraction (TIOGUANINE [13]; 100 nM) of 0.972 ± 0.049, a surviving fraction (TIOGUANINE [13]; 500 nM) of 0.885 ± 0.02 and a surviving fraction (TIOGUANINE [13]; 1000 nM) of 0.842 ± 0.059. For the same test system, the surviving fraction (AFATINIB [14]; 0.5 nM) was 0.981 ± 0.053, the surviving fraction (AFATINIB [14]; 1 nM) was 0.965 ± 0.1 and the surviving fraction (AFATINIB [14]; 5 nM) was 0.941 ± 0.035. The surviving fraction (AFATINIB [14]; 10 nM) was 0.984 ± 0.044, the surviving fraction (AFATINIB [14]; 50 nM) was 0.94 ± 0.024 and the surviving fraction (AFATINIB [14]; 100 nM) was 0.922 ± 0.064. The surviving fraction (AFATINIB [14]; 500 nM) was 0.635 ± 0.019, the surviving fraction (AFATINIB [14]; 1000 nM) was 0.379 ± 0.017 and the surviving fraction (SNX-5422 [15]; 0.5 nM) was 0.976 ± 0.035. The surviving fraction (SNX-5422 [15]; 1 nM) was 0.979 ± 0.042, the surviving fraction (SNX-5422 [15]; 5 nM) was 1.09 ± 0.04 and the surviving fraction (SNX-5422 [15]; 10 nM) was 0.977 ± 0.0066. It also gave a surviving fraction (SNX-5422 [15]; 50 nM) of 0.23 ± 0.015, a surviving fraction (SNX-5422 [15]; 100 nM) of 0.152 ± 0.0056 and a surviving fraction (SNX-5422 [15]; 500 nM) of 0.0738 ± 0.003. The surviving fraction (SNX-5422 [15]; 1000 nM) was 0.0662 ± 0.0051, the surviving fraction (BI-2536 [16]; 0.5 nM) was 0.998 ± 0.053 and the surviving fraction (BI-2536 [16]; 1 nM) was 0.944 ± 0.04. The surviving fraction (BI-2536 [16]; 5 nM) was 0.102 ± 0.023, the surviving fraction (BI-2536 [16]; 10 nM) was 0.0418 ± 0.0018 and the surviving fraction (BI-2536 [16]; 50 nM) was 0.045 ± 0.0054. For the same test system, the surviving fraction (BI-2536 [16]; 100 nM) was 0.0367 ± 0.001, the surviving fraction (BI-2536 [16]; 500 nM) was 0.0423 ± 0.0025 and the surviving fraction (BI-2536 [16]; 1000 nM) was 0.0472 ± 0.00058.
